Assays:
mixed hardwoods (MXDSP) = experiment: Test 13 field trial, postemergence, brush weeds; type: in vivo, Nyssa sylvatica, Acer rubrum, Liquidambar styraciflua; details: 56 DAA; g a.i./ha: Cpd 2 250; Fosamine-ammonium 6700
Source text: Plots were established in non-crop land and were 6.1 m long by 3.0 m wide. […] Treatments were applied postemergence to the brush weeds using a backpack sprayer delivering a spray volume of 468 L/ha using a pressure of 241 kPa. […] All treatments also included a surfactant. […] Results are the means of the three replicates.

winter wheat (TRZAW) = experiment: Test 24 growth chamber, postemergence; type: in vivo, Triticum aestivum; details: 17 DAA
Protocol: (§1) Plants were treated postemergence at the 2-4 leaf growth stage, and each treatment was replicated three times. […] Plants were watered as needed. […] Results for barley and wheat are the means across varieties of the three replicates, and results for the weeds are the means of the three replicates.

galium (GALAP) = experiment: Test 24 growth chamber, postemergence; type: in vivo, Galium aparine; details: 17 DAA
Protocol: as §1

wild mustard (SINAR) = experiment: Test 24 growth chamber, postemergence; type: in vivo, Sinapis arvensis; details: 17 DAA
Protocol: as §1

[1] = system: Pennsylvania smartweed (POLPY); experiment: Test 25 field trial, postemergence, growth as percent of control; type: in vivo, Polygonum pensylvanicum; details: 14 DAA
Source text: Corn seeds (hybrid ‘Pioneer 31G96 RR’) were planted in mid spring season, 3.8 cm deep in a clay loam soil having 2% organic matter and a pH of 6.6. Plots were 6.1 m long by 3.0 m wide with rows spaced 76 cm apart. Seeds were spaced 15 cm apart within the rows. The field was managed using conventional tillage practices. […] Giant ragweed and Pennsylvania smartweed could only be evaluated 14 days after application. […] Results are the means of the three replicates. This growth inhibition data was converted to results in the form of “plant growth as a percent of control plant growth” using the calculation “100 minus growth inhibition”.
When this form of Colby's Equation is used, if the observed effects on weeds are less than the expected values, the mixture is synergistic.

[2] = system: ivyleaf morningglory (IPOHE); experiment: Test 26 field trial, postemergence; type: in vivo, Ipomoea hederacea; parameters: scale not given here
Source text: (§2) Corn seeds (hybrid ‘Pioneer 31G96’) were planted in mid spring season, 3.8 cm deep in a silt loam soil having 2% organic matter and a pH of 6.6. Plots were 6.1 m long by 3.0 m wide with rows spaced 76 cm apart. Seeds were spaced 15 cm apart within the rows. The field was managed using conventional tillage practices. […] All treatments also included a surfactant. […] Some of the weed species could not be evaluated at every timing. […] Results are the means of the three replicates.

giant foxtail (SETFA) = experiment: Test 26 field trial, postemergence; type: in vivo, Setaria faberi; parameters: scale not given here
Source text: as §2

barnyardgrass (ECHCG) = experiment: Test 28 greenhouse, postemergence; type: in vivo, Echinochloa crus-galli; details: 26 DAA
Protocol: A greenhouse test was conducted to evaluate the effects on the plant species corn (ZEAMD, Zea mays ssp. indentata), sorghum (SORVU, Sorghum vulgare L.), dry-seeded rice (ORYSA, Oryza sativa L.), wheat (TRZAW, Triticum aestivum L.), ivyleaf morningglory (IPOHE, Ipomoea hederacea (L.) JACQ.), and barnyardgrass (ECHCG, Echinochloa crus-galli (L.) P. BEAUV.), of mixtures of Compound 2 with isoxadifen-ethyl. Corn, sorghum, rice, wheat, ivyleaf morningglory and barnyardgrass seeds were planted in RediEarth, a commercial potting medium. […] Corn plants were treated postemergence at the V2 growth stage, and sorghum, rice, wheat, ivyleaf morningglory, and barnyardgrass plants were treated postemergence at the 3-leaf stage. […] Each treatment was replicated three times. […] Plants were watered as needed.

corn (ZEAMD) = experiment: Test 14 field trial, preemergence, growth as percent of control; type: in vivo, Zea mays ssp. indentata; details: 1870 g a.i./ha
Source text: Corn seeds (hybrid ‘Pioneer 31G96 RR’) were planted in mid spring season, 3.8 cm deep in a clay loam soil having 2% organic matter and a pH of 6.6. Plots were 6.1 m long by 3.0 m wide with rows spaced 76 cm apart. Seeds were spaced 15 cm apart within the rows. The field was managed using conventional tillage practices. […] Yellow nutsedge was only evaluated 19 and 28 days after application, and ivyleaf morningglory could only be evaluated 28 days after application. […] Results are the means of the three replicates. This growth inhibition data was converted to results in the form of “plant growth as a percent of control plant growth” using the calculation “100 minus growth inhibition”. […] For “growth as a percent of control” data, Colby's Equation calculates the expected additive effect of herbicidal mixtures having two active ingredients as follows:
Ga+b=GaGb/100 • wherein Ga+b is the growth as a percent of control of plants treated with the mixture expected from additive contribution of the individual components, • Ga is the observed growth as a percent of control of plants treated with the first active ingredient at the same use rate as in the mixture, and • Gb is the observed growth as a percent of control of plants treated with the second active ingredient at the same use rate as in the mixture. For mixtures having three active ingredients, Colby's Equation to calculate the expected additive effect of herbicidal mixtures is as follows:
Ga+b+c=GaGbGc/10,000 • wherein Ga and Gb are as defined above and • Ga+b+c is the growth as a percent of control of plants treated with the mixture expected from additive contribution of the individual components, and • Gc is the observed growth as a percent of control of plants treated with the third active ingredient at the same use rate as in the mixture. When these two forms of Colby's Equation are used, if the observed effects on weeds are less than the expected values, the mixture is synergistic.

In the case of `COC(=O)c1nc(C2CC2)nc(N)c1Cl` [Compound 2, methyl 6-amino-5-chloro-2-cyclopropyl-4-pyrimidinecarboxylate], the “MXDSP Obs” value (mixed hardwoods (MXDSP)) is reported as 45, the “TRZAW Obs (scale 0 to 100)” value (winter wheat (TRZAW); Cpd 2 4 g a.i./ha) is reported as 21 and the “TRZAW Obs (scale 0 to 100)” value (winter wheat (TRZAW); Cpd 2 8 g a.i./ha) is reported as 33. For the same compound, the “TRZAW Obs (scale 0 to 100)” value (winter wheat (TRZAW); Cpd 2 16 g a.i./ha) was 39, the “GALAP Obs (scale 0 to 100)” value (galium (GALAP); Cpd 2 4 g a.i./ha) was 73 and the “GALAP Obs (scale 0 to 100)” value (galium (GALAP); Cpd 2 8 g a.i./ha) was 75. The “GALAP Obs (scale 0 to 100)” value (galium (GALAP); Cpd 2 16 g a.i./ha) was 87, the “SINAR Obs (scale 0 to 100)” value (wild mustard (SINAR); Cpd 2 4 g a.i./ha) was 62 and the “SINAR Obs (scale 0 to 100)” value (wild mustard (SINAR); Cpd 2 8 g a.i./ha) was 65. The “SINAR Obs (scale 0 to 100)” value (wild mustard (SINAR); Cpd 2 16 g a.i./ha) was 72, the “POLPY Obs (percent of control)” value ([1]; Cpd 2 15 g a.i./ha) was 95% and the “POLPY Obs (percent of control)” value ([1]; Cpd 2 30 g a.i./ha) was 55%. For the same compound, the “POLPY Obs (percent of control)” value ([1]; Cpd 2 45 g a.i./ha) was 65%, the “IPOHE Obs” value ([2]; 14 DAA, 30 g a.i./ha) was 90 and the “IPOHE Obs” value ([2]; 14 DAA, 45 g a.i./ha) was 67. The “IPOHE Obs” value ([2]; 14 DAA, 60 g a.i./ha) was 98, the “IPOHE Obs” value ([2]; 28 DAA, 30 g a.i./ha) was 95 and the “IPOHE Obs” value ([2]; 28 DAA, 45 g a.i./ha) was 99. The “IPOHE Obs” value ([2]; 28 DAA, 60 g a.i./ha) was 98, the “IPOHE Obs” value ([2]; 56 DAA, 30 g a.i./ha) was 88 and the “IPOHE Obs” value ([2]; 56 DAA, 45 g a.i./ha) was 96. For the same compound, the “IPOHE Obs” value ([2]; 56 DAA, 60 g a.i./ha) was 98, the “SETFA Obs” value (giant foxtail (SETFA); 28 DAA, 30 g a.i./ha) was 98 and the “SETFA Obs” value (giant foxtail (SETFA); 28 DAA, 45 g a.i./ha) was 97. The “SETFA Obs” value (giant foxtail (SETFA); 28 DAA, 60 g a.i./ha) was 99, the “SETFA Obs” value (giant foxtail (SETFA); 56 DAA, 30 g a.i./ha) was 50 and the “SETFA Obs” value (giant foxtail (SETFA); 56 DAA, 45 g a.i./ha) was 73. For the same compound, the “SETFA Obs” value (giant foxtail (SETFA); 56 DAA, 60 g a.i./ha) was 70, the “ECHCG Obs” value (barnyardgrass (ECHCG); Cpd 2 32 g a.i./ha) was 83 and the “ECHCG Obs” value (barnyardgrass (ECHCG); Cpd 2 64 g a.i./ha) was 87.
With `CCc1cccc(C)c1N(C(=O)CCl)[C@@H](C)COC` [S-Metolachlor, S-metolachlor, reference compound] the “Obs growth % of control” value (corn (ZEAMD); 19 DAA) was 98%, the “Obs growth % of control” value (corn (ZEAMD); 28 DAA) was 98% and the “Obs growth % of control” value (corn (ZEAMD); 56 DAA) was 100%.
